According to patent US20240041042A1, “1-(PYRIDYL)-5-AZINYLPYRAZOLE DERIVATIVES, AND THEIR USE FOR CONTROL OF UNDESIRED PLANT GROWTH” (Bayer Aktiengesellschaft, priority 2020, published 2024):
Like-named read-outs stand apart in the source and are kept apart here.

Assays:
Format in all cases: in vivo
Oryza sativa (ORYSA) [1] = conditions: crop plant compatibility
In short: (§1)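 Crop injury rated visually in percent against untreated plants roughly 3 weeks after treatment (0% no effect, 100% plants dead). Compounds, as WP or EC with 0.5% additive in 600 l/ha water, were applied to the covering soil right after sowing; greenhouse growth. Suffixes a, b, c denote different dosages.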

[2] = test system: Abutilon theophrasti (ABUTH); experiment: Pre-emergence herbicidal action against ABUTH; conditions: 100% = plants have died
In short: (§2)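 Application rates ran to 320 g/ha or lower, with several dosages tested on the same weeds. The compound, as wettable powder or emulsion concentrate, is sprayed pre-emergence onto soil over sown seeds; greenhouse growth follows, and effect is rated visually after roughly 3 weeks.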

Setaria viridis (SETVI) = experiment: Post-emergence herbicidal action against SETVI
In short: (§3)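 Post-emergence greenhouse spray, one-leaf stage, 600 l/ha water plus 0.5% additive; WP or EC formulations; application rates 320 g/ha or lower. Visual % damage vs untreated controls at ~3 weeks.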

[3] = test system: Digitaria sanguinalis (DIGSA); experiment: Pre-emergence herbicidal action against DIGSA
In short: as §2

[4] = test system: Digitaria sanguinalis (DIGSA); experiment: Post-emergence herbicidal action against DIGSA; conditions: visual rating about 3 weeks after treatment
In short: as §3

Avena fatua (AVEFA) = experiment: Pre-emergence herbicidal action against AVEFA; conditions: visual scoring after about 3 weeks vs untreated controls
In short: as §2

Oryza sativa (ORYSA) [5] = conditions: crop plant compatibility; remark: listed apart in the source
In short: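 Visual rating (% effect vs. untreated plants; 100% = plant death) made about 3 weeks after treatment. Plants had been sprayed at one-leaf stage, 2–3 weeks post-sowing, with aqueous WP/EC preparations containing 0.5% additive, 600 l/ha water volume; a, b, c mark dose levels.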

[6] = test system: Amaranthus retroflexus (AMARE); experiment: Post-emergence herbicidal action against AMARE
In short: as §3

Zea mays (ZEAMX) = conditions: pre-emergence, 80 g/ha, crop plant compatibility, in comparison to untreated controls
In short: as §1

[7] = 20 g/ha, effect vs untreated controls
[8] = Dosage column 320 g/ha (title prints 3200 g/ha), scored visually after about 3 weeks
[9] = 80 g/ha, visual scoring after about 3 weeks vs untreated controls
[10] = 80 g/ha, effect in comparison to untreated controls
[11] = 80 g/ha, visual rating about 3 weeks after treatment vs untreated controls (100% = plants have died, 0% = like control plants)
[12] = 320 g/ha, visual rating about 3 weeks after treatment

SMILES | Pre-emergence action against ORYSA (Oryza sativa (ORYSA) [1]; [7]) [%] | Pre-emergence action against ABUTH [2, 8] [%] | Post-emergence action against SETVI in % (Setaria viridis (SETVI); dosage 80 g/ha) [%] | Post-emergence action against SETVI in % (Setaria viridis (SETVI); dosage 320 g/ha) [%] | Pre-emergence action against DIGSA in % [3, 9] [%] | Pre-emergence action against DIGSA in % ([3]; dosage 320 g/ha) [%] | Post-emergence action against DIGSA in % ([4]; 80 g/ha) [%] | Post-emergence action against DIGSA in % ([4]; 320 g/ha) [%] | Pre-emergence action against AVEFA in % (Avena fatua (AVEFA); 80 g/ha) [%] | Pre-emergence action against AVEFA in % (Avena fatua (AVEFA); 320 g/ha) [%] | Post-emergence action against ORYSA in % (Oryza sativa (ORYSA) [5]; [7]) [%] | Post-emergence action against ORYSA in % (Oryza sativa (ORYSA) [5]; [10]) [%] | Post-emergence action against AMARE in % [6, 11] [%] | Post-emergence action against AMARE in % [6, 12] [%] | Pre-emergence action against ZEAMX in % (Zea mays (ZEAMX)) [%] | Pre-emergence action against ABUTH ([2]; 80 g/ha, scored visually after about 3 weeks vs untreated controls, 0% = like control plants) [%] | Pre-emergence action against ORYSA in % (Oryza sativa (ORYSA) [1]; pre-emergence, 80 g/ha, in comparison to untreated controls) [%]
O=C(O)COc1nn(-c2ncccc2F)c(-c2ccc(F)nc2)c1Br [Example I-17] | 0 | 90 | 80 | 80 | 100 | 100 | 90 | 90 | 80 | 100 | 0 | 10 | – | – | – | – | –
COC(=O)COc1nn(-c2ncccc2F)c(-c2ccc(F)nc2)c1Br [Example I-07] | – | 90 | 90 | 90 | 100 | 100 | 90 | 90 | – | 90 | – | 0 | 90 | 90 | – | – | –
COC(=O)[C@H](C)COC(=O)COc1nn(-c2ccccn2)c(-c2cncc(F)c2)c1Cl [Example I-192] | – | 80 | 80 | 80 | 90 | 100 | 80 | 80 | – | 90 | – | 0 | 80 | 80 | – | – | –
C[C@@H](Oc1nn(-c2ncccc2F)c(-c2ccc(F)nc2)c1Br)C(=O)O [Example I-10] | – | 80 | 80 | 80 | 100 | 100 | 90 | 90 | – | 100 | – | – | – | – | 20 | – | –
O=C(O)COc1nn(-c2ncccc2F)c(-c2cncc(F)c2)c1C1CC1 [Example I-175] | – | 90 | – | 80 | 100 | 100 | 90 | 90 | – | 90 | – | 20 | 80 | 80 | – | 80 | –
COCCOC(=O)COc1nn(-c2ccccn2)c(-c2ccc(F)nc2)c1Br [Example I-96] | – | 80 | 90 | 90 | – | – | – | – | – | 90 | – | – | 80 | 80 | 0 | – | 20
